According to patent publication US12215069B2, “Sirtuin modulating compounds and applications thereof” (Codagen Biosciences, Inc., priority 2022, dated 2025):

Assays:
Sirt3 [1] = target: T1, Sirt3 (Homo sapiens, UniProt Q9NTG7); test: Fluorescence-based (FdL) assay of Sirt3 deacylation activity under steady state conditions; format: biochemical; conditions: for remaining activity at 1 µM: compound 1 μM; for remaining activity at 1 µM / remaining activity at 10 µM: read-out: % Control, Sirt3 deacylation activity; for remaining activity at 10 µM: compound 10 μM; for % Control, Sirt3 deacylation activity: compound 50 μM or maximum
T1 construct: The hSirt3^118-399 was purchased from Xtal Biostructures (Natick, MA); purchased Xtal Biostructures (Natick, MA)
T1 sequence (Q9NTG7 118-399): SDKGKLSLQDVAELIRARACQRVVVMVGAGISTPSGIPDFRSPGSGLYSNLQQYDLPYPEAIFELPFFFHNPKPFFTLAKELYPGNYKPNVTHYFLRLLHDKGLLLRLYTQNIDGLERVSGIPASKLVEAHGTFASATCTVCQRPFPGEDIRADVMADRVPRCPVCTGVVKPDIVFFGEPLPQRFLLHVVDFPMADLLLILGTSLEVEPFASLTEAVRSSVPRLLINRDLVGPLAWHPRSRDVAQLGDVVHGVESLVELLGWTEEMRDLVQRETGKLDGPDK
From the text: (§1) FdL2 (QPKK^AC-AMC) peptide, also called p53-AMC peptide, was purchased from Enzo Life Sciences (Farmingdale, NY). Carba-NAD was synthesized by Dalton Pharma (Toronto, ON). The hSirt3^118-399 was purchased from Xtal Biostructures (Natick, MA). Virtual screening hits were supplied from ChemBridge Corp. (San Diego, CA).
(§2) Effect of Hit Compounds on hSirt3^118-399 Deacetylation Activity

Sirt3 [2] = target: T1, Sirt3; test: HPLC assay of Sirt3 deacylation activity under non-steady state conditions; format: biochemical; conditions: compound 10 μM, 2 minute time point, read-out: % Control (10 μM), Sirt3 deacylation activity
From the text: as §1, §2

Row | remaining activity at 1 µM (Sirt3 [1]) [%] | remaining activity at 10 µM (Sirt3 [1]) [%] | % Control, Sirt3 deacylation activity (Sirt3 [1]) [%] | remaining activity at 10 µM (Sirt3 [2]; [E]0/[NAD+]0 = 0.3, 50 μM NAD+) [%] | remaining activity at 10 µM (Sirt3 [2]; [E]0/[NAD+]0 = 0.6, 50 μM NAD+) [%] | SMILES
1 | 95.7 ± 2.6 | 82.8 ± 2.3 | 73.6 ± 2.4 | 104 ± 3.3 | 107 ± 1.6 | C=C(CC)C(=O)c1ccc(OCC(=O)N[C@H](Cc2ccc(Cl)cc2)C(=O)NCCCC)c(Cl)c1Cl [FIG. 1, (2R)—N-butyl-3-(4-chlorophenyl)-2-[[2-[2,3-dichloro-4-(2-methylenebutanoyl)phenoxy]acetyl]amino]propanamide]
2 | 80.4 ± 3.1 | 75.5 ± 2.3 | 68.7 ± 4.0 | – | – | C=C(CC)C(=O)c1ccc(OCC(=O)NC2c3ccccc3CCc3cc(OCC(=O)NCCCC)ccc32)c(Cl)c1Cl (centres unmarked) [FIG. 28]
